Measured values taken from article PMC7080406 (eLife, 2020).
“And” between values parts separate entries of the source, which are not always exact repeats. Equal entries are not always repeated. “Also recorded” adds a separate entry of the source. Where two headings read alike, the source gives them in different places.

Experiments:
[1] = tested on: panel of 47 common drug targets (GPCRs, ion-channels and transporters); experiment: Binding profiling at a panel of 47 common drug targets; settings: final concentration of 10 μM
Description: The Radioligand binding assays were conducted by the NIMH Psychoactive Drug Screening Program (PDSP). The NIMH PDSP is directed by Bryan L. Roth, MD, PhD, at the University of North Carolina at Chapel Hill, North Carolina, and Program Officer Jamie Driscoll at NIMH, Bethesda, MD. Binding assay procedures and protocols are also available online at http://pdspdb.unc.edu/pdspWeb/?site=assays. All the radioligand binding assays were performed using membranes prepared from transiently transfected HEK293T cells (purchased from ATCC, CRL-11268, authenticated by the supplier using morphology, growth characteristics, and STR profiling and certified mycoplasma-free) and in standard binding buffer (50 mM Tris, 10 mM MgCl2, 0.1 mM EDTA, 0.1% BSA, 0.01% ascorbic acid, pH 7.4) as recently reported ([Stauch et al., 2019]). […] Assay plates were sealed and incubated for 4 hr at 37°C in a humidified incubator until harvesting. Plates were harvested using vacuum filtration onto 0.3% polyethyleneimine pre-soaked 96-well Filtermat A (PerkinElmer) and washed three times with cold wash buffer (50 mM Tris, pH 7.4). Filters were dried and melted with a scintillation cocktail (Meltilex, PerkinElmer). Radioactivity was counted using a Wallac TriLux Microbeta counter (PerkinElmer). Results were analyzed using GraphPad Prism 7.0.

[2] = target: T1, MT2 (Homo sapiens, UniProt P49286); experiment: Tango β-arrestin recruitment assay, MT2; type: cell-based; parameters: expressed in transfected cells; transient transfection; settings: result in words; compared to G-protein
T1 sequence (P49286 1-362): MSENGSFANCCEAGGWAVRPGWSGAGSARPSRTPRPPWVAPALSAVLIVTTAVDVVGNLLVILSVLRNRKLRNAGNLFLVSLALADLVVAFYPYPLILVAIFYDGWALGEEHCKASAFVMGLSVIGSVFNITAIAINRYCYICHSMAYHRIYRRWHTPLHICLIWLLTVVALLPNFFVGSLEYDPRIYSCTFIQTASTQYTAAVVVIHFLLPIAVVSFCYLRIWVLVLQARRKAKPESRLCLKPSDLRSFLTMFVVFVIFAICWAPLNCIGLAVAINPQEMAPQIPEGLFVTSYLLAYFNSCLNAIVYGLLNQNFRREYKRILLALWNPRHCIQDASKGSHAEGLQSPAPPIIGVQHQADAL
Description: Tango arrestin recruitment assays were carried out according to the previously published procedure [Kroeze et al. (2015)]. In brief, HTLA cells were transiently transfected with receptor TANGO DNA constructs overnight in DMEM with 10% FBS. Transfected cells were then plated into poly-L-Lys coated 384-well plates using DMEM supplemented with 1% dialyzed FBS. After 6 hr incubation, drug dilutions, prepared in DMEM with 1% dFBS, were added for incubation overnight (16–20 hr). Medium and drug solutions were removed, Bright-Glo reagent (20 uL/well) was added for luminescence counting 20 min later. Results were analyzed in GraphPad Prism 7.0.

[3] = target: T1, MT2; experiment: GloSensor Gi/o-mediated cAMP production inhibition assay, MT2; type: cell-based; parameters: expressed in transfected cells; host or cells: HEK293T (ATCC CRL-11268), transient transfection
Description: (§1) Briefly, HEK293 T cells (as above) were transiently co-transfected with receptor (MT1 or MT2) and GloSensor cAMP (Promega) plasmids overnight, plated in Poly-L-Lysine coated 384-well white clear bottom plates in DMEM + 1% dialyzed FBS. Cells were used for assays at a minimum of 6 hr after plating. Culture medium was first removed and cells were stimulated with drugs in assay buffer (1x HBSS, 20 mM HEPES, 1 mg/ml BSA, 0.1 mg/ml ascorbic acid, pH 7.4) for 15 min at room temperature (this and all the following steps), followed by addition of a mixture of isoproterenol (final of 100 nM) and luciferin (final of 1 mM) for Gi/o-cAMP production inhibition assays and luciferin (final of 1 mM) for Gs-cAMP production assays. The plates were counted for luminescence after 25 min in a luminescence plate reader. Results were analyzed using GraphPad Prism 7.0.

[4] = target: T2, MT1 (Homo sapiens, UniProt P48039); experiment: GloSensor Gi/o-mediated cAMP production inhibition assay, MT1; type: cell-based; settings: for EC50: Gi/o mediated
T2 construct: expressed in transfected cells; host or cells: HEK293T (ATCC CRL-11268), transient transfection
T2 sequence (P48039 whole entry): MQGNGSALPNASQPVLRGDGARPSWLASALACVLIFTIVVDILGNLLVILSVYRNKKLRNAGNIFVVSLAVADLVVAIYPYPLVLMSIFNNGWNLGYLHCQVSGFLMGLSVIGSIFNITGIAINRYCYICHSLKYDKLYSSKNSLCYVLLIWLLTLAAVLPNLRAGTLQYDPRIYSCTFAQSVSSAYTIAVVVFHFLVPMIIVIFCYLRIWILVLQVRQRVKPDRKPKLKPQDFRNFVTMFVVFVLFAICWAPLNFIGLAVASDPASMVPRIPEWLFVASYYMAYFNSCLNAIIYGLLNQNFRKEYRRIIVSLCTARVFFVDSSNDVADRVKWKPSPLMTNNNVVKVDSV
Description: as §1

[5] = target: T2, MT1; experiment: [3H]melatonin competition radioligand binding, MT1 membranes; settings: read-out: MT1 pKi ± SEM (converted)
Description: (§2) The Radioligand binding assays were conducted by the NIMH Psychoactive Drug Screening Program (PDSP). The NIMH PDSP is directed by Bryan L. Roth, MD, PhD, at the University of North Carolina at Chapel Hill, North Carolina, and Program Officer Jamie Driscoll at NIMH, Bethesda, MD. Binding assay procedures and protocols are also available online at http://pdspdb.unc.edu/pdspWeb/?site=assays. […] Assay plates were sealed and incubated for 4 hr at 37°C in a humidified incubator until harvesting. Plates were harvested using vacuum filtration onto 0.3% polyethyleneimine pre-soaked 96-well Filtermat A (PerkinElmer) and washed three times with cold wash buffer (50 mM Tris, pH 7.4). Filters were dried and melted with a scintillation cocktail (Meltilex, PerkinElmer). Radioactivity was counted using a Wallac TriLux Microbeta counter (PerkinElmer). Results were analyzed using GraphPad Prism 7.0.

[6] = target: T1, MT2; experiment: Bias factor, Gi-cAMP versus Tango (Black and Leff operational model), MT2; type: cell-based; parameters: expressed in transfected cells; host or cells: HEK293T (ATCC CRL-11268), transient transfection; settings: G-protein over β-arrestin at MT2; reference melatonin; 10^ΔΔLog(τ/KA)
Description: Bias factors were estimated according to the published procedure [Kenakin et al. (2012)] with modifications. Briefly, normalized and pooled results were analyzed by fitting the Black and Leff operational model in Prism 7.0 to obtain Log(τ/KA) values for each pathway (Tango and Gi-cAMP). Within each signaling pathway, a difference of Log(τ/KA), ΔLog(τ/KA), between a test compound and selected reference (melatonin in this case) was calculated. For a testing compound, the difference of ΔLog(τ/KA), ΔΔLog(τ/KA), was then obtained between two pathways. The bias factor is 10^ΔΔLog(τ/KA).

[7] = target: T1, MT2; experiment: [3H]melatonin competition radioligand binding, MT2 membranes; parameters: expressed in transfected cells; host or cells: HEK293T (ATCC CRL-11268), transient transfection; settings: read-out: MT2 pKi ± SEM (converted)
Description: as §2

[8] = ligand efficiency (based on EC50)

binding at panel of 47 common drug targets [1]: did not show any substantial binding | MT2/MT1 Selectivity ([3]; Antilog (log(Emax/EC50) MT2 - log (Emax/EC50) MT1), values below 1 = MT1 selectivity): 30 fold and 30.6 fold | EC50 ([3]; Gi/o mediated, SEM, N = 3, read-out: MT2 pEC50 ± SEM (converted)): 0.363 nM | Emax ([3]; MT2, activation compared to melatonin, read-out: MT2 Emax ± SEM): 86.1 ± 3.2% | MT2 LE [3, 8]: 0.83 kcal/mol per non-hydrogen atom | EC50 ([4]; SEM, N = 3, read-out: MT1 pEC50 ± SEM (converted)): 12.3 nM | EC50 ([4]; read-out: MT1 EC50): 12 nM | MT1 LE [4, 8]: 0.69 kcal/mol per non-hydrogen atom | Emax ([4]; read-out: MT1 Emax ± SEM): 93.8 ± 2.5% | Ki [5]: 490 nM | bias factor [6]: 15.5 | Ki [7]: 123 nM
Structure (SMILES): COc1ccnc(N(C)CCNC(C)=O)n1 [Compound 21, N-{2-[(4-methoxypyrimidin-2-yl)(methyl)amino]ethyl}acetamide]
β-arrestin signaling / arrestin recruitment at MT2 [2]: dramatically reduced arrestin recruitment; also recorded: marked reduction in β-arrestin signaling compared to G-protein
